# Results taken from patent US20240299486A1, “ADDRESSING INJECTION SITE REACTIONS ASSOCIATED WITH THE ADMINISTRATION OF ELAMIPRETIDE” (STEALTH BIOTHERAPEUTICS INC., priority 2022, published 2024).
# Legend:
# [1] = tested on: Mouse primary peritoneal mast cells; test: Mast cell activation (Fluo-4 calcium imaging); type: cell-based; conditions: 500 micrograms/mL elamipretide
# Protocol: Mouse primary peritoneal mast cells were isolated from wild type and Mrgprb2 knockout mice. Mast cells were incubated in Dulbecco's Modified Eagle Medium, supplemented with 10% fetal bovine serum and 100 ng/mL human stem cell factor for 2 hours in wells of a glass-bottom 96 well plate that had been previously coated with fibronectin. […] A confocal fluorescence microscope was used to assess changes in free intracellular calcium levels in each mast cell in a visual field, as measured by changes in Fluo-4 fluorescence using a standard FITC filter, reflecting responsiveness to elamipretide. Cells were identified as responding if the Fluo-4 signal rose by at least 50% for at least 10 seconds, which clearly distinguishes a ligand-induced response from random flickering events.
# Injection site reactions induced by several classes of drugs were mediated in mice by Mrgprb2-dependent activation of mast cells. Whether elamipretide activated primary mouse connective tissue mast cells was evaluated, and if so, it was evaluated whether this was Mrgprb2-dependent. […] Briefly, primary connective tissue mast cells were purified from mice, loaded with Fluo-4, and changes in fluorescence after elamipretide exposure were imaged. T fluorescence of over 200 individual mast cells, each from wild type and Mrgprb2 knockout mice, were monitored and the percentage of total cells that responded was determined.
# [2] = SQ elamipretide, multiple-dose trials >8 days, n = 376
compound,measurement,setting,value
"Cc1cc(O)cc(C)c1C[C@H](NC(=O)[C@H](N)CCCNC(=N)N)C(=O)N[C@@H](CCCCN)C(=O)N[C@@H](Cc1ccccc1)C(N)=O (stereo in doubt) [Elamipretide, H-D-Arg-2′,6′Dmt-Lys-Phe-NH2]","Injection site bruising, (%) of Subjects",subjects; [2],(12.0) %
same,"Injection site bruising, Number of Subjects",subjects; [2],45
same,"Injection site erythema, (%) of Subjects",subjects; [2],(47.3) %
same,"Injection site erythema, Number of Subjects",subjects; [2],178
same,"Injection site haemorrhage, (%) of Subjects",subjects; [2],(5.9) %
same,"Injection site haemorrhage, Number of Subjects",subjects; [2],22
same,"Injection site induration, (%) of Subjects",subjects; [2],(19.4) %
same,"Injection site induration, Number of Subjects",subjects; [2],73
same,"Injection site mass, (%) of Subjects",subjects; [2],(5.6) %
same,"Injection site mass, Number of Subjects",subjects; [2],21
same,"Injection site pain, (%) of Subjects",subjects; [2],(22.3) %
same,"Injection site pain, Number of Subjects",subjects; [2],84
same,"Injection site pruritus, (%) of Subjects",subjects; [2],(44.7) %
same,"Injection site pruritus, Number of Subjects",subjects; [2],168
same,"Injection site swelling, (%) of Subjects",subjects; [2],(13.8) %
same,"Injection site swelling, Number of Subjects",subjects; [2],52
same,"Injection site urticaria, (%) of Subjects",subjects; [2],(12.5) %
same,"Injection site urticaria, Number of Subjects",subjects; [2],47
same,"injection site reactions (ISRs) reported, % of subjects",subjects; subjects receiving SQ elamipretide through clinical trials,84.4%
same,intracellular calcium response of mast cells,[1]; mast cells from Mrgprb2 knockout mice,almost no responses
same,intracellular calcium response of mast cells,[1]; wild-type mast cells,Robust increases in intracellular calcium
